Among the data in publication PMC11290694 (Science (New York, N.Y.), 2024) are Kd values, retold here.

pKd: −log10 of the molar value. Like-named read-outs stand apart in the source and are kept apart here.

One assay concerns the target PiB′. Put plainly: UV-visible absorption titration, single-site global fit. It is filed as binding, synthetic construct.
A further assay addresses PiB. The assay is described as above. In kind it is binding, synthetic construct.

With `NC(=O)c1cccc2cn(-c3ccc([C@@H]4CCCNC4)cc3)nc12` [niraparib], the results for the pKd on PiB′ and on PiB were 6.26 and 6.22, respectively.

As for `CNCc1ccc(-c2cc3cc(F)cc(C(N)=O)c3o2)cc1` [mefuparib], the pKd at PiB′ (PDB 8TNB is labelled mefuparib-bound PiB in b31 but PiB′ in b20 and b22) is 6.46; at PiB, 6.72.

A word on the pKd: it is the negative decadic logarithm of the Kd, by convention in mol/L.
